These results are taken from paper PMC5708337 (2017).

The structures appear in SMILES notation.

The subject of assay [1] is hTeloCBiotin (DNA, i motif) TAACCCTAACCCTAACCCTAACCC
Description: SPR, single concentration. Conditions: Na+ (100 mM NaCl, 10 mM sodium cacodylate), pH 5.5, 0.05% Tween-20, 5% DMSO, 50 μM compound; for binding: NB.

Assay [2] has as its system DSbiotin (DNA, duplex) GGCATAGTGCGTGGGCGTTAGC/GCTAACGCCCACGCACTATGCC
Nature of the assay: SPR, single concentration. The note with it: Na+ (100 mM NaCl, 10 mM sodium cacodylate); pH 5.5, 0.05% Tween-20, 5% DMSO; 50 μM compound.

The test system of assay [3] is c-MycCBiotin (DNA, i motif) CCTTCCCCACCCTCCCCACCCTCCCCA
Nature of the assay: SPR, single concentration. Conditions: Na+ (100 mM NaCl, 10 mM sodium cacodylate); pH 5.5, 0.05% Tween-20, 5% DMSO; 50 μM compound.

The subject of assay [4] is hTeloC (DNA, i motif) TAACCCTAACCCTAACCCTAACCC
Nature of the assay: fluorescent intercalator displacement. Conditions: Na+ (10 mM sodium cacodylate); pH 5.5; thiazole orange 2 μM displaced; 1 μM DNA.

For assay [5], the system named is DSbiotin (DNA, duplex) GGCATAGTGCGTGGGCGTTAGC/GCTAACGCCCACGCACTATGCC
Nature of the assay: SPR. The note with it: Na+ (100 mM NaCl, 10 mM sodium cacodylate); pH 5.5, 0.05% Tween-20, 5% DMSO.

Assay [6] relates to c-MycCBiotin (DNA, i motif) CCTTCCCCACCCTCCCCACCCTCCCCA
Description: SPR. The note with it: Na+ (100 mM NaCl, 10 mM sodium cacodylate); pH 5.5, 0.05% Tween-20, 5% DMSO.

The subject of assay [7] is hTeloCBiotin (DNA, i motif) TAACCCTAACCCTAACCCTAACCC
Description: SPR. The note with it: Na+ (100 mM NaCl, 10 mM sodium cacodylate); pH 5.5, 0.05% Tween-20, 5% DMSO.

As for `CC1=NCCc2c1[nH]c1cc(O)ccc21`, in assay [1], the binding entry is “no”. The figures for the “%Rmax” value in assay [2] and in assay [3] were 123% and 64%, respectively.
Turning to `CCN(CC)CCOc1ccc2c(c1)C(=O)c1cc(OCCN(CC)CC)ccc1-2`, the “%Rmax” value in assay [1] amounted to 116%; in assay [2], 811%; in assay [3], 420%. In assay [4], this molecule yielded a DC50 of 2.4 µM.
Take `CCN(CC)Cc1cc(Nc2ccnc3cc(Cl)ccc23)ccc1O`: the “%Rmax” value in assay [1] came to 15%; in assay [2] it was 59%; in assay [3], 31%.
`CN(C)c1ccc(O)c2c1C[C@H]1C[C@H]3[C@H](N(C)C)C(O)=C(C(N)=O)C(=O)[C@@]3(O)C(O)=C1C2=O`: the figures for the “%Rmax” value in assay [1], in assay [2] and in assay [3] were 29%, 69% and 36%, respectively.
For the molecule `NC[C@H]1O[C@H](O[C@H]2[C@H](O)[C@@H](O[C@H]3O[C@H](CO)[C@@H](O)[C@H](N)[C@H]3O)[C@H](N)C[C@@H]2N)[C@H](N)C[C@@H]1O`, the “%Rmax” value in assay [1] amounted to 325%; in assay [2] it was 233%; in assay [3], 121%. Besides, the Kd in assay [5] amounted to 18 ± 1.1 µM; in assay [6], 13 ± 1.8 µM; in assay [7], 17 ± 2.0 µM. The DC50 in assay [4] stood at 2.9 µM.
As to `Nc1ccc(N=Nc2ccccc2)c(N)n1`, the “%Rmax” value in assay [1] stood at 38%; in assay [2], 137%; in assay [3], 71%.
As for `O=C1c2c(O)ccc(O)c2C(=O)c2c(NCCNCCO)ccc(NCCNCCO)c21`, the figures for the “%Rmax” value in assay [1], in assay [2] and in assay [3] were 2125%, 4894% and 2534%, respectively. Also, the DC50 in assay [4] was determined as 1.8 µM.
With `O=C1c2ccc(O)c(O)c2C(=O)c2c(O)ccc(O)c21`, in assay [1], the binding result was “no”. For the same molecule, the figures for the “%Rmax” value in assay [2] and in assay [3] were 95% and 49%, respectively.
